Tests used:
[1] = molecular target: T1, Recombinant N-terminal GST tag full-length human HDAC8 (Homo sapiens, UniProt Q9BY41); experiment: HDAC8 probe binding assay, time resolved fluorescence (TRF); details: fluorescein labeled pan-HDAC inhibitor probe, 16 hours incubation, compounds listed under IC50 range headings
T1 construct: Recombinant N-terminal GST tag full-length human HDAC8; purchased SignalChem H90-30G-1000; host or cells: Sf9 insect cells (baculovirus)
T1 sequence (Q9BY41 1-377): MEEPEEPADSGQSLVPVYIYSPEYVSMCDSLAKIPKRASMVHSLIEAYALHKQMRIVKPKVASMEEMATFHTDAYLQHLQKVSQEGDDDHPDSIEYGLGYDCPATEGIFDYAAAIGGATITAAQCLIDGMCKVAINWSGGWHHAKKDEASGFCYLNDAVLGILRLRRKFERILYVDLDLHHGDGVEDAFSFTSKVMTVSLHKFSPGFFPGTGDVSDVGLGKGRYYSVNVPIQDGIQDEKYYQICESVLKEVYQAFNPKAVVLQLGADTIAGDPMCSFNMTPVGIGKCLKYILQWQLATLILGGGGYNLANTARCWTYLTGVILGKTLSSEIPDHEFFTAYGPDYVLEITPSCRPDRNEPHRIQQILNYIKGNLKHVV
Procedure: The HDAC8 probe binding assay was performed using a time resolved fluorescence (TRF) assay format. Recombinant N-terminal GST tag full-length human HDAC8 was expressed and purified from baculovirus in Sf9 insect cells (SignalChem, #H90-30G-1000), Each assay was performed in 1536 black well microplates (Corning, #3936) in a final volume of 4 μL in assay buffer containing 50 mM HEPES (pH 7.5), 50 mM KCl, 50 mM NaCl, 0.5 mM GSH (L-Glutathione reduced, Sigma #G4251), 0.03% BGG (0.22 μM filtered, Sigma, #G7516-25G), and 0.01% Triton X-100 (Sigma, #T9284-10L). 20 nL of 10-point, 3-fold serial dilution in DMSO was pre-dispensed into respective wells of 1536 assay plates for a final test concentration range of 25 μM to 1.3 nM respectively. The final concentration in the assay of HDAC8 and probe (a fluorescein labeled pan-HDAC inhibitor) was 2.5 nM and 1.5 nM respectively. 2 μL of 2× probe and 2× anti-GST Terbium (Cisbio, #61GSTXLB) was added to assay plates followed by 2 μL of 2× HDAC8. Plates were incubated for 16 hours at room temperature before time resolved fluorescence was read on the Envision (Excitation at 340 nm, and Emission at 485 nm and 535 nm, Perkin Elmer).
Data from HDAC8 Assays were reported as percent inhibition (inh) compared with control wells based on the following equation: % inh=1−((FLU−AveLow)/(AveHigh−AveLow)) where FLU=measured time resolved fluorescence. AveLow=average time resolved fluorescence of no enzyme control (n=32). AveHigh=average time resolved fluorescence of DMSO control (n=32). IC50 values were determined by curve fitting of the standard 4 parameter logistic fitting algorithm included in the Activity Base software package: IDBS XE Designer Model205. Data is fitted using the Levenburg Marquardt algorithm.

[2] = molecular target: T2, Full length human recombinant HDAC8 protein (Homo sapiens, UniProt Q9BY41); experiment: In vitro histone deacetylase assay: enzymatic HDAC8 assay, electrophoretic mobility shift; assay type: biochemical; details: substrate RHKK(Ac)-NH2, 1 nM enzyme, compounds listed under IC50 range headings
T2 construct: Full length human recombinant HDAC8 protein was expressed in baculoviral system; made in house
T2 sequence (Q9BY41 1-377): T1 sequence (Q9BY41 1-377)
Outline: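 Baculovirus-expressed full-length human HDAC8 (1 nM) deacetylated 2 µM fluorescent RHKK(Ac)-NH2 peptide in pH 7.5 HEPES, 1% DMSO, at 25 °C, with 12 compound concentrations at 3× spacing. SDS-quenched; product and substrate resolved by microfluidic electrophoresis, P/(S+P) converted to percent inhibition, and IC50 obtained by 4-parameter fit.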

Structure (SMILES) | IC50 [1] [µM] | IC50 [2] [µM]
O=C(/C=C/c1ccccc1NCc1cccnc1)NO [Example I-93] | ≤ 1 | < 1
Cc1cc(C(=O)N2CCN(c3ccccc3/C=C/C(=O)NO)CC2)n(C)n1 [Example I-298, (E)-3-(2-(4-(1,3-dimethyl-1H-pyrazole-5-carbonyl)piperazin-1-yl)phenyl)-N-hydroxyacrylamide] | ≤ 1 | < 1
O=C(/C=C/c1ccccc1C(=O)N1CCCC1)NO [II-15, (E)-N-hydroxy-3-(2-(pyrrolidine-1-carbonyl)phenyl)acrylamide] | ≤ 1 | < 1
O=C(/C=C/c1ccccc1N1CC[C@@H](c2ccccc2)C1=O)NO (single isomer, unassigned) [Example I-328] | ≤ 1 | < 1
Cc1cc(CN2C[C@@H]3C[C@H]2CN3c2ccccc2/C=C/C(=O)NO)n(C)n1 [Example I-317, (E)-3-(2-((1S,4S)-5-((1,3-dimethyl-1H-pyrazol-5-yl)methyl)-2,5-diazabicyclo[2.2.1]heptan-2-yl)phenyl)-N-hydroxyacrylamide] | ≤ 1 | < 1
CCC(Oc1ccccc1)C(=O)Nc1ccccc1/C=C/C(=O)NO (stereo not drawn) [Example I-281, (E)-N-(2-(3-(hydroxyamino)-3-oxoprop-1-en-1-yl)phenyl)-2-phenoxybutanamide] | ≤ 1 | < 1
CCn1nc(C)cc1C(=O)Nc1ccccc1/C=C/C(=O)NO [Example I-274, (E)-1-ethyl-N-(2-(3-(hydroxyamino)-3-oxoprop-1-en-1-yl)phenyl)-3-methyl-1H-pyrazole-5-carboxamide] | ≤ 1 | < 1
O=C(/C=C/c1ccccc1NC(=O)c1ncsc1Oc1ccccc1)NO [Example I-539, N-{2-[(1E)-2-(hydroxycarbamoyl)eth-1-en-1-yl]phenyl}-5-phenoxy-1,3-thiazole-4-carboxamide] | ≤ 1 | < 1
O=C(/C=C/c1ccccc1N1CCN(Cc2cccnc2)CC1)NO [Example I-179, (E)-N-hydroxy-3-(2-(4-(pyridin-3-ylmethyl)piperazin-1-yl)phenyl)acrylamide] | ≤ 1 | < 1
O=C(/C=C/c1ccccc1NC(=O)c1ccc(OC(F)F)cc1)NO [Example I-70, (E)-4-(difluoromethxoy)-N-(2-(3-(hydroxyamino)-3-oxoprop-1-en-1-yl)phenyl)benzamide] | ≤ 1 | < 1
Cc1ccc(Oc2ccccc2C(=O)Nc2ccccc2/C=C/C(=O)NO)cn1 [Example I-535, (E)-N-(2-(3-(hydroxyamino)-3-oxoprop-1-en-1-yl)phenyl)-2-((6-methylpyridin-3-yl)oxy)benzamide] | ≤ 1 | < 1
O=C(/C=C/c1ccccc1NC(=O)[C@@H]1C[C@H]2CC[C@@H]1O2)NO [Example I-282, (1S,2R,4R)-N-(2-((E)-3-(hydroxyamino)-3-oxoprop-1-en-1-yl)phenyl)-7-oxabicyclo[2.2.1]heptane-2-carboxamide] | ≤ 1 | < 1
O=C(/C=C/c1ccccc1N1CCCC12CN(C(=O)Cc1ccc(F)cc1)C2)NO [Example I-562] | ≤ 1 | –
O=C(/C=C/c1ccccc1N1CCCC12CN(C(=O)CC(F)(F)F)C2)NO [Example I-566, (E)-N-hydroxy-3-(2-(2-(3,3,3-trifluoropropanoyl)-2,5-diazaspiro[3.4]octan-5-yl)phenyl)acrylamide] | ≤ 1 | –
O=C(/C=C/c1ccccc1N1CCCC12CN(C(=O)C1CCCC1)C2)NO [Example I-565, (E)-3-(2-(2-(cyclopentanecarbonyl)-2,5-diazaspiro[3.4]octan-5-yl)phenyl)-N-hydroxyacrylamide] | ≤ 1 | –
O=C(/C=C/c1cc(F)ccc1NC(=O)c1ccccc1Oc1ccc(F)cc1)NO [Example I-555, N-{4-fluoro-2-[(1E)-2-(hydroxycarbamoyl)eth-1-en-1-yl]phenyl}-2-(4-fluorophenoxy)benzamide] | ≤ 1 | –
O=C(/C=C/c1ccccc1N1CCC2(CCCN2C(=O)Cc2ccccc2)C1)NO (stereo not drawn) [Example I-579, (E)-N-hydroxy-3-(2-(1-(2-phenylacetyl)-1,7-diazaspiro[4.4]nonan-7-yl)phenyl)acrylamide] | 1 to 100 | –
O=C(/C=C/c1ccccc1N1CCCC12CN(C(=O)Cc1ccccc1)C2)NO [Example I-561, (E)-N-hydroxy-3-(2-(2-(2-phenylacetyl)-2,5-diazaspiro[3.4]octan-5-yl)phenyl)acrylamide] | ≤ 1 | –
Cn1cc(Oc2ccccc2C(=O)Nc2ccccc2/C=C/C(=O)NO)cn1 [Example I-548, N-{2-[(1E)-2-(hydroxycarbamoyl)eth-1-en-1-yl]phenyl}-2-[(1-methyl-1H-pyrazol-4-yl)oxy]benzamide] | ≤ 1 | –
CC(C)(C)OC(=O)N1CCCC12CN(c1ccccc1/C=C/C(=O)NO)C2 [Example I-550, tert-butyl (E)-2-(2-(3-(hydroxyamino)-3-oxoprop-1-en-1-yl)phenyl)-2,5-diazaspiro[3.4]octane-5-carboxylate] | ≤ 1 | –
COc1cnccc1Oc1ccccc1C(=O)Nc1ccccc1/C=C/C(=O)NO [Example I-553, N-{2-[(1E)-2-(hydroxycarbamoyl)eth-1-en-1-yl]phenyl}-2-[(3-methoxypyridin-4-yl)oxy]benzamide] | ≤ 1 | –
O=C(/C=C/c1cc(Cl)ccc1NC(=O)c1ccccc1Oc1ccc(F)cc1)NO [Example I-549, N-{4-chloro-2-[(1E)-2-(hydroxycarbamoyl)eth-1-en-1-yl]phenyl}-2-(4-fluorophenoxy)benzamide] | ≤ 1 | –
COc1ccc(Oc2ccccc2C(=O)Nc2ccc(Cl)cc2/C=C/C(=O)NO)cc1 [Example I-573, N-{4-chloro-2-[(1E)-2-(hydroxycarbamoyl)eth-1-en-1-yl]phenyl}-2-(4-methoxyphenoxy)benzamide] | ≤ 1 | –
O=C(/C=C/c1ccc(Cl)cc1NC(=O)c1ccccc1Oc1ccc(F)cc1)NO [Example I-564, N-{5-chloro-2-[(1E)-2-(hydroxycarbamoyl)eth-1-en-1-yl]phenyl}-2-(4-fluorophenoxy)benzamide] | ≤ 1 | –
COc1cc(F)ccc1Oc1ccccc1C(=O)Nc1ccccc1/C=C/C(=O)NO [Example I-546, (E)-2-(4-fluoro-2-methoxyphenoxy)-N-(2-(3-(hydroxyamino)-3-oxoprop-1-en-1-yl)phenyl)benzamide] | ≤ 1 | –
O=C(/C=C/c1ccccc1N1CCN(c2ccc(F)cc2)CC1=O)NO [Example I-504, (E)-3-(2-(4-(4-fluorophenyl)-2-oxopiperazin-1-yl)phenyl)-N-hydroxyacrylamide] | ≤ 1 | –
CC1(C(=O)N2CC3(CCCN3c3ccccc3/C=C/C(=O)NO)C2)CCCCC1 [Example I-568, (E)-N-hydroxy-3-(2-(2-(1-methylcyclohexane-1-carbonyl)-2,5-diazaspiro[3.4]octan-5-yl)phenyl)acrylamide] | ≤ 1 | –
COc1cccc(Oc2ccccc2C(=O)Nc2ccccc2/C=C/C(=O)NO)c1 [Example I-552, N-{2-[(1E)-2-(hydroxycarbamoyl)eth-1-en-1-yl]phenyl}-2-(3-methoxyphenoxy)benzamide] | ≤ 1 | –
O=C(/C=C/c1ccccc1N1CCC2(CCCN2C(=O)c2ccc(F)cc2)C1)NO (stereo not drawn) [Example I-575, (E)-3-(2-(1-(4-fluorobenzoyl)-1,7-diazaspiro[4.4]nonan-7-yl)phenyl)-N-hydroxyacrylamide] | ≤ 1 | –
O=C(/C=C/c1cc(Cl)ccc1NC(=O)c1cccnc1Oc1ccc(Cl)cc1)NO [Example I-572, N-{4-chloro-2-[(1E)-2-(hydroxycarbamoyl)eth-1-en-1-yl]phenyl}-2-(4-chlorophenoxy)pyridine-3-carboxamide] | ≤ 1 | –
